Test results as given in patent US20250100993A1, “2-SUBSTITUTED THIAZOLE HSD17B13 INHIBITORS AND USES THEREOF” (Inipharm, Inc., priority 2022, published 2025).

Target: HSD17B13 (Homo sapiens (Human), UniProt Q7Z5P4)
Experiment: LC/MS estrone detection assay for HSD17B13 activity (estradiol to estrone)
Type: biochemical
Details: estradiol substrate; for IC50: LC-MS/MS estrone detection; for Ki: LCMS, read-out: HSD17B13 Inhibition_Estradiol Substrate_LCMS: Ki
Protocol: The liquid chromatography/mass spectrometry (LC/MS) estrone detection assay monitors the conversion of estradiol to estrone by HSD17B13. This assay was undertaken in a 96 wp format (Eppendorf deep well Plate 96/500) in an 80 μl reaction volume containing: 4 μM of Estradiol (E2; Cayman; Ser. No. 10/006,315), 6 mM NAD+(Sigma; #N0623) and 30 nM HSD17B13 enzyme (in-house; E. coli expressed His-tagged, purified, soluble protein) in a reaction containing 1M potassium phosphate buffer pH 7.4, with 0.5% vehicle (DMSO). Reactions were incubated for 2 hours at 26.5° C., and estradiol (E2) conversion to estrone (E1) was quantitated by LC-MS/MS based analyte detection for both E2 and E1 using LCMS grade reagents.
Reactions were terminated by the addition of two volumes of acetonitrile (MeCN; LCMS grade; CAS #75/05/8) containing deuterated (D4)-E1 used as internal standard (Clear Synth; #CS-T-54273; 500 ng/mL final concentration). Samples were applied to pre-prepared Bond Elut-C18 extraction cartridges (3 mL; Agilent; Ser. No. 12/102,028), washed and eluted in MeCN. Eluates were dried under nitrogen and re-suspended in 60% methanol (LCMS grade methanol; CAS #67/56/1) before submission for analysis. Aqueous linearity for E2 and E1 were included for quantification.
Analysis of samples was undertaken on a XBridge BEH C18 column (Waters; #186003033) using 0.1% Diethyl Amine in MeCN (mobile phase A; DEA CAS #109-89-7) and 0.1% Diethyl Amine in milli-Q water (mobile phase B) in a 3 min gradient allowing 25% B. Analytes were detected in negative mode using MRM analysis, with E2 having a RT of 1.85 min and E1 having a RT of 2 min. Activity of the enzyme, in the absence of NAD+, was used to evaluate specificity of conversion. Enzyme activity in the presence of test samples was expressed as a percentage of the uninhibited enzyme activity, and plotted versus inhibitor concentration. Non-linear regression was performed using a four-parameter logistic model and GraphPad Prism software (GraphPad Software, La Jolla, CA). All assessments were undertaken in duplicate evaluations and pooled during extraction process and subsequently injected as duplicates for LC-MS/MS analysis.

Chain of HSD17B13 (Q7Z5P4 20-300): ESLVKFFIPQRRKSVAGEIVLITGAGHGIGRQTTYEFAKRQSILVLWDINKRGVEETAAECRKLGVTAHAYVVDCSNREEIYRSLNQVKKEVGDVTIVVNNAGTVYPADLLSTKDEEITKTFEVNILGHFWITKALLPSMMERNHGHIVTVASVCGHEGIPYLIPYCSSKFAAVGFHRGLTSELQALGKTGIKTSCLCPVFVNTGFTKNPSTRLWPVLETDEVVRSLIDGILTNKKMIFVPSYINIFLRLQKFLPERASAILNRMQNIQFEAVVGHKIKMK

IC50 [nM] | Ki [nM] | Compound
100 to 500 |  | CC(C)(C)CCNC(=O)c1ncsc1NC(=O)c1cc(Cl)c(O)c(Cl)c1 [Example 46, 5-(3,5-dichloro-4-hydroxybenzamido)-N-(3,3-dimethylbutyl)thiazole-4-carboxamide]
100 to 500 |  | CC(C)n1cc(C(=O)NCc2ccccc2C(F)(F)F)c(NC(=O)c2cc(Cl)c(O)c(Cl)n2)n1 [Example 48, 4,6-dichloro-5-hydroxy-N-(1-isopropyl-4-((2-(trifluoromethyl)benzyl)carbamoyl)-1H-pyrazol-3-yl)picolinamide]
100 to 500 |  | O=C(Nc1nn(CC(F)(F)F)cc1C(=O)NCc1ccccc1C(F)(F)F)c1cc(Cl)c(O)c(Cl)c1 [Example 49, 3-(3,5-dichloro-4-hydroxybenzamido)-1-(2,2,2-trifluoroethyl)-N-(2-(trifluoromethyl)benzyl)-1H-pyrazole-4-carboxamide]
100 to 500 |  | O=C(Nc1nn(CC(F)(F)F)cc1C(=O)NCc1ccccc1C(F)(F)F)c1cc(Cl)c(O)c(Cl)n1 [Example 50, 4,6-dichloro-5-hydroxy-N-(1-(2,2,2-trifluoroethyl)-4-((2-(trifluoromethyl)benzyl)carbamoyl)-1H-pyrazol-3-yl)picolinamide]
100 to 500 |  | O=C(Nc1sc(-c2cccnc2)nc1C(=O)NCc1ccccc1C(F)(F)F)c1cc(Cl)c(O)c(Cl)n1 [Example 51, 5-(4,6-dichloro-5-hydroxypicolinamido)-2-(pyridin-3-yl)-N-(2-(trifluoromethyl)benzyl)thiazole-4-carboxamide]
100 to 500 |  | O=C(Nc1cccnc1C(=O)NCc1ccccc1OC(F)(F)F)c1cc(Cl)c(O)c(Cl)n1 [Example 52, 4,6-dichloro-5-hydroxy-N-(2-((2-(trifluoromethoxy)benzyl)carbamoyl)pyridin-3-yl)picolinamide]
500 to 1000 |  | Cn1cc(C(=O)NCCC(C)(C)C)c(NC(=O)c2cc(Cl)c(O)c(Cl)c2)n1 [Example 53, 3-(3,5-dichloro-4-hydroxybenzamido)-N-(3,3-dimethylbutyl)-1-methyl-1H-pyrazole-4-carboxamide]
1000 to 10000 |  | O=C(Nc1nn(C2CC2)cc1C(=O)NCc1ccccc1C(F)(F)F)c1cc(Cl)c(O)c(Cl)n1 [Example 54, 4,6-dichloro-N-(1-cyclopropyl-4-((2-(trifluoromethyl)benzyl)carbamoyl)-1H-pyrazol-3-yl)-5-hydroxypicolinamide]
100 to 500 |  | O=C(Nc1nn(C(F)F)cc1C(=O)NCc1ccccc1C(F)(F)F)c1cc(Cl)c(O)c(Cl)c1 [Example 55, 3-(3,5-dichloro-4-hydroxybenzamido)-1-(difluoromethyl)-N-(2-(trifluoromethyl)benzyl)-1H-pyrazole-4-carboxamide]
500 to 1000 |  | O=C(Nc1cccc2c1c(=O)n(Cc1ccccc1C(F)(F)F)c(=O)n2C1CC1)c1cc(Cl)c(O)c(Cl)n1 [Example 56, 4,6-dichloro-N-(1-cyclopropyl-2,4-dioxo-3-(2-(trifluoromethyl)benzyl)-1,2,3,4-tetrahydroquinazolin-5-yl)-5-hydroxypicolinamide]
≤ 100 |  | O=C(Nc1ccc(-c2ccccc2)nc1C(=O)NCc1ccccc1OC(F)(F)F)c1cc(Cl)c(O)c(Cl)c1 [Example 57, 3-(3,5-dichloro-4-hydroxybenzamido)-6-phenyl-N-(2-(trifluoromethoxy)benzyl)picolin amide]
≤ 100 |  | O=C(Nc1ccc(-c2ccccc2)nc1C(=O)NCc1ccccc1OC(F)(F)F)c1cc(Cl)c(O)c(Cl)n1 [Example 58, 4,6-dichloro-5-hydroxy-N-(6-phenyl-2-((2-(trifluoromethoxy)benzyl)carbamoyl)pyridin-3-yl)picolinamide]
 | ≤ 50 | O=C(Nc1sc(-c2cc[nH]n2)nc1C(=O)NCc1ccccc1C(F)(F)F)c1cc(Cl)c(O)c(Cl)n1 [Example 71]
 | 100 to 500 | O=C(Nc1sc(-c2ccccc2)nc1C(=O)NCC(F)(F)F)c1cc(Cl)c(O)c(Cl)n1 [Example 72]
 | ≤ 50 | O=C(Nc1sc(-c2ccc[nH]c2=O)nc1C(=O)NCc1ccccc1C(F)(F)F)c1cc(Cl)c(O)c(Cl)n1 [Example 74]
 | ≤ 50 | O=C(Nc1sc(-c2cncc(F)c2)nc1C(=O)NCc1ccccc1C(F)(F)F)c1cc(Cl)c(O)c(Cl)c1 [Example 75]
 | ≤ 50 | O=C(Nc1sc(-c2cncc(F)c2)nc1C(=O)NCc1ccccc1C(F)(F)F)c1cc(Cl)c(O)c(Cl)n1 [Example 76]
 | ≤ 50 | O=C(Nc1sc(-c2ccc[nH]c2=O)nc1C(=O)NCc1ccccc1C(F)(F)F)c1cc(Cl)c(O)c(Cl)c1 [Example 77]

More lines, now with the values behind:

Compound | IC50 [nM] | Ki [nM]
Cc1nsc(NC(=O)c2cc(Cl)c(O)c(Cl)n2)c1C(=O)NCc1ccccc1OC(F)(F)F [Example 29, 5-(4,6-dichloro-5-hydroxypicolinamido)-3-methyl-N-(2-(trifluoromethoxy)benzyl)isothiazole-4-carboxamide] | 100 to 500 | 
O=C(Nc1scnc1C(=O)NCC12CC3CC(CC(C3)C1)C2)c1cc(Cl)c(O)c(Cl)n1 [Example 30, N-(adamantan-1-ylmethyl)-5-(4,6-dichloro-5-hydroxypicolinamido)thiazole-4-carboxamide] | 100 to 500 | 
O=C(Nc1scnc1C(=O)N1CCC2(CCCCC2)C1)c1cc(Cl)c(O)c(Cl)n1 [Example 31, N-(4-(2-azaspiro[4.5]decane-2-carbonyl)thiazol-5-yl)-4,6-dichloro-5-hydroxypicolinamide] | 1000 to 10000 | 
O=C(Nc1scnc1C(=O)NC1(c2ccccc2)CCC1)c1cc(Cl)c(O)c(Cl)n1 [Example 32, 5-(4,6-dichloro-5-hydroxypicolinamido)-N-(1-phenylcyclobutyl)thiazole-4-carboxamide] | ≤ 100 | 
O=C(Nc1scnc1C(=O)NCc1c(F)cccc1F)c1cc(Cl)c(O)c(Cl)n1 [Example 33, 5-(4,6-dichloro-5-hydroxypicolinamido)-N-(2,6-difluorobenzyl)thiazole-4-carboxamide] | 100 to 500 | 
CC(C)(C)CCNC(=O)c1ncsc1NC(=O)c1cc(Cl)c(O)c(Cl)n1 [Example 35, 5-(4,6-dichloro-5-hydroxypicolinamido)-N-(3,3-dimethylbutyl)thiazole-4-carboxamide] | 100 to 500 | 
O=C(Nc1scnc1C(=O)NCC1(F)CC1)c1cc(Cl)c(O)c(Cl)n1 [Example 36, 5-(4,6-dichloro-5-hydroxypicolinamido)-N-((1-fluorocyclopropyl)methyl)thiazole-4-carboxamide] | 1000 to 10000 | 
O=C(Nc1scnc1C(=O)NC1CCC2(CC1)CNC2)c1cc(Cl)c(O)c(Cl)n1 [Example 37, 5-(4,6-dichloro-5-hydroxypicolinamido)-N-(2-azaspiro[3.5]nonan-7-yl)thiazole-4-carboxamide] | > 10000 | 
Cc1nsc(NC(=O)c2cc(Cl)c(O)c(Cl)n2)c1C(=O)NCc1ccccc1C(F)(F)F [Example 38, 5-(4,6-dichloro-5-hydroxypicolinamido)-3-methyl-N-(2-(trifluoromethyl)benzyl)isothiazole-4-carboxamide] | ≤ 100 | 
CC(C)CCNC(=O)c1ncsc1NC(=O)c1cc(Cl)c(O)c(Cl)n1 [Example 39, 5-(4,6-dichloro-5-hydroxypicolinamido)-N-isopentylthiazole-4-carboxamide] | 100 to 500 | 
O=C(Nc1scnc1C(=O)NC12C[C@H]3C[C@@H](C1)C[C@@H](C2)C3)c1cc(Cl)c(O)c(Cl)n1 [Example 40, N-((3s,5s,7s)-adamantan-1-yl)-5-(4,6-dichloro-5-hydroxypicolinamido)thiazole-4-carboxamide] | ≤ 100 | 
O=C(Nc1scnc1C(=O)NCc1ccc2c(c1)OCO2)c1cc(Cl)c(O)c(Cl)n1 [Example 41, N-(benzo[d][1,3]dioxol-5-ylmethyl)-5-(4,6-dichloro-5-hydroxypicolinamido)thiazole-4-carboxamide] | 100 to 500 | 
CS(=O)(=O)c1ccccc1CNC(=O)c1ncsc1NC(=O)c1cc(Cl)c(O)c(Cl)n1 [Example 42, 5-(4,6-dichloro-5-hydroxypicolinamido)-N-(2-(methylsulfonyl)benzyl)thiazole-4-carboxamide] | 100 to 500 | 
O=C(Nc1scnc1C(=O)NC1CCOc2ccccc21)c1cc(Cl)c(O)c(Cl)n1 (stereo not drawn) [Example 43, N-(chroman-4-yl)-5-(4,6-dichloro-5-hydroxypicolinamido)thiazole-4-carboxamide] | 100 to 500 | 
O=C(Nc1scnc1C(=O)N1CCC(C(F)(F)F)CC1)c1cc(Cl)c(O)c(Cl)n1 [Example 44, 4,6-dichloro-5-hydroxy-N-(4-(4-(trifluoromethyl)piperidine-1-carbonyl)thiazol-5-yl)picolinamide] | 500 to 1000 | 
